Measured values from US11426367B2, “Methods of treating substance abuse” (Perception Neuroscience, Inc., priority 2018, dated 2022).

How the values were obtained:
DEX-treated mice = assay: Locomotion test (LMT), neonatal dexamethasone exposure model; format: in vivo; details: juvenile DEX-treated mice, 10 mg/kg i.p., day after injection
Protocol: A new animal model of depression was prepared by exposing mice neonatally to dexamethasone (hereinafter abbreviated as DEX). […] The mouse model was prepared and reported only recently by the inventors of the present application and their collaborators (Non Patent Literature 18). […] Further, alterations were found in levels of amino acids (glutamate, glutamine, glycine, D-serine, and L-serine) in mouse brains after the neonatal DEX exposure (Non Patent Literature 18). Those amino acids are known to be associated with NMDA receptor mediated neurotransmission. Thus, it is conceivable that alterations in glutamatergic transmission via the NMDA receptor after the neonatal DEX exposure may be involved in the depression-like behavior in the juvenile mice and the adult mice (Non Patent Literature 18). […]
The antidepressant effects of the agent were investigated for juvenile mice by behavioral tests such as the TST, the PST, the LMT, and a 1% sucrose preference test (SPT) (FIG. 2A). […] The immobility time of each mouse was recorded for 10 minutes. […] The immobility time was calculated as a value obtained by subtracting active time from total time, using the analysis software of the apparatus. Cumulative immobility time was recorded over 6 minutes during a test period. […] The locomotor activity of the mice was counted with SCANET MV-40, and the cumulative exercise of the mice was recorded for 60 minutes. […]

[1] = tested on: rewarding effects of morphine; assay: Morphine-induced conditioned place preference; format: in vivo, mice; details: for Morphine CPP, dose blocking the rewarding effects of morphine: Table 11, Present study
Protocol: The methods for conditioned place preference and evaluation of R-ketamine were conducted using the general methods of Suzuki et al. (2000). The general design was to dose mice with either saline+saline, saline+morphine, or R-ketamine+morphine and evaluate their preference for the morphine-associated place.
Male ddY mice (20-23 g) were obtained from Tokyo Experimental Animals Inc. (Tokyo, Japan). The ddY mice were bred in a closed colony. The mice were housed at a temperature of 22 f 1° C. with a 12-h light-dark cycle (light on 8:30 a.m. to 8:30 p.m.). Food and water were available ad libitum.
Place conditioning was conducted as described previously, using a minor modification of a biased procedure according to Suzuki et al. (2000). The apparatus consisted of a shuttlebox (15×30×15 cm: w×l×h) made of an acryl-resin board. The box was divided into two compartments of equal size by means of a sliding partition. One compartment was white with a textured floor; the other was black with a smooth floor. For conditioning mice were immediately conditioned to the white compartment following drug injection and to the black compartment following vehicle injection.
Conditioning sessions were conducted once daily for 6 consecutive days. […] Preference for a particular place was assessed in the drug-free state after placing the animals on the neutral platform and allowing them free access to both compartments. The time spent in each compartment during a 900-sec session was then measured automatically in a blinded fashion by two infrared beam sensors (KN-80, Natsume Seisakusyo, Tokyo, Japan) on the covers (3 cm from the center and the side) of the white and black compartments. […]
Conditioning scores represent the time spent in the drug-paired place minus the time spent in the vehicle-paired place, and are expressed as the mean±S.E.M. Behavioral data were evaluated statistically with a one-way analysis of variance (ANOVA) followed by Dunnett's test to determine whether individual doses produced significant conditioning.

Row | SMILES | locomotion in the LMT (DEX-treated mice) | conditioned place preference induced by morphine ([1]; 10 mg/kg i.p. co-dosed with morphine 5 mg/kg i.p., F(2,29)=2.2, p=0.064) | Morphine CPP, dose blocking the rewarding effects of morphine [1] [mg/kg]
1 | CN[C@@]1(c2ccccc2Cl)CCCCC1=O.Cl [R(−)-ketamine] | no difference in locomotion | trend toward significant attenuation | 10
2 | CN[C@]1(c2ccccc2Cl)CCCCC1=O [S(+)-ketamine] | no difference in locomotion | – | 10
